Measurements from US20230167088A1, “1-PYRAZINYLPYRAZOLYL-3-OXYALKYL ACIDS AND THEIR DERIVATIVES, AND THEIR USE FOR CONTROL OF UNDESIRED PLANT GROWTH” (BAYER AKTIENGESELLSCHAFT, priority 2020, published 2023).

Columns and labels:
ECHCG [1] = experiment: Herbicidal pre-emergence action 2a (greenhouse pots, visual scoring); assay type: in vivo, Echinochloa crus-galli; conditions: dosage 320 g/ha, visual scoring after about 3 weeks
Description: (§1) [table] a) Seeds of monocotyledonous and dicotyledonous weed plants and crop plants are placed in plastic or organic plant pots and covered with soil. The compounds of the invention, formulated in the form of wettable powders (WP) or as emulsion concentrates (EC), are then applied onto the surface of the covering soil as aqueous suspension or emulsion with addition of 0.5% additive at a water application rate of 600 1/ha (converted). After the treatment, the pots are placed in a greenhouse and kept under good growth conditions for the trial plants. After about 3 weeks, the effect of the preparations is scored visually in comparison with untreated controls as percentages. For example, 100% activity=the plants have died, 0% activity=like control plants. Tables B1 to B15 below show the effects of selected compounds of the general formula (I) according to Tables 1 and 2 on various harmful plants and an application rate corresponding to 320 g/ha and/or 80 g/ha, which were obtained by the experimental procedure mentioned above.

ECHCG [2] = experiment: Herbicidal post-emergence action 1b (twin sowing, 1280 g/ha); assay type: in vivo, Echinochloa crus-galli; conditions: dosage 1280 g/ha, visual rating about 3 weeks after treatment
Description: (§2) [table] b) Seeds of mono- and dicotyledonous weed plants are placed in plastic pots in sandy loam soil (twin sowing with one species each of mono- or dicotyledonous weed plants per pot), covered with soil and cultivated in a greenhouse under controlled growth conditions. 2 to 3 weeks after sowing, the test plants are treated at the one-leaf stage. The compounds of the invention, formulated in the form of wettable powders (WP) or as emulsion concentrates (EC), are applied to the green parts of the plants as aqueous suspension or emulsion with addition of 0.5% additive at a water application rate equivalent to 600 litres per hectare. After the test plants have been kept in the greenhouse under optimum growth conditions for about 3 weeks, the activity of the preparations is rated visually in comparison to untreated controls. For example, 100% activity=the plants have died, 0% activity=like control plants. Tables A16 to A21 below show the effects of selected compounds of the general formula (I) according to Tables 1 and 2 on various harmful plants and at an application rate corresponding to 1280 g/ha, which were obtained by the experimental procedure mentioned above.

STEME [3] = experiment: Herbicidal pre-emergence action 2b (doubly sown, 1280 g/ha); assay type: in vivo, Stellaria media; conditions: doubly sown pots, dosage 1280 g/ha, visual scoring after about 3 weeks
Description: (§3) [table] b) Seeds of mono- and dicotyledonous weed plants are placed in plastic pots in sandy loam soil (doubly sown with one species each of mono- or dicotyledonous weed plants per pot) and covered with soil. The compounds of the invention, formulated in the form of wettable powders (WP) or as emulsion concentrates (EC), are then applied onto the surface of the covering soil as aqueous suspension or emulsion with addition of 0.5% additive at a water application rate equivalent to 600 litres per hectare. After the treatment, the pots are placed in a greenhouse and kept under good growth conditions for the trial plants. After about 3 weeks, the effect of the preparations is scored visually in comparison with untreated controls as percentages. For example, 100% activity=the plants have died, 0% activity=like control plants. Tables B16 to B21 below show the effects of selected compounds of the general formula (I) according to Tables 1 and 2 on various harmful plants and at an application rate corresponding to 1280 g/ha, which were obtained by the experimental procedure mentioned above.

MATIN [4] = experiment: as above; assay type: in vivo, Matricaria inodora; conditions: doubly sown pots, dosage 1280 g/ha, visual scoring after about 3 weeks
Description: as §3

MATIN [5] = experiment: Herbicidal post-emergence action 1b (twin sowing, 1280 g/ha); assay type: in vivo, Matricaria inodora; conditions: dosage 1280 g/ha, visual rating about 3 weeks after treatment
Description: as §2

AMARE [6] = experiment: Herbicidal pre-emergence action 2b (doubly sown, 1280 g/ha); assay type: in vivo, Amaranthus retroflexus; conditions: doubly sown pots, dosage 1280 g/ha, visual scoring after about 3 weeks
Description: as §3

POAAN [7] = experiment: as above; assay type: in vivo, Poa annua; conditions: doubly sown pots, dosage 1280 g/ha, visual scoring after about 3 weeks
Description: as §3

ECHCG [8] = experiment: as above; assay type: in vivo, Echinochloa crus-galli; conditions: doubly sown pots, dosage 1280 g/ha, visual scoring after about 3 weeks
Description: as §3

LOLRI [9] = experiment: Herbicidal post-emergence action 1a (greenhouse pots, visual rating); assay type: in vivo, Lolium rigidum; conditions: Dosage 320 g/ha; rated visually about 3 weeks after treatment; 100% = plants have died, 0% = like control plants
Description: (§4) [table] a) Seeds of monocotyledonous and dicotyledonous weeds and crop plants are placed in sandy loam in plastic or organic plant pots, covered with soil and cultivated in a greenhouse under controlled growth conditions. 2 to 3 weeks after sowing, the test plants are treated at the one-leaf stage. The compounds of the invention, formulated in the form of wettable powders (WP) or as emulsion concentrates (EC), are then sprayed onto the green parts of the plants as aqueous suspension or emulsion with addition of 0.5% additive at a water application rate of 600 1/ha (converted). After the test plants have been kept in the greenhouse under optimum growth conditions for about 3 weeks, the activity of the preparations is rated visually in comparison to untreated controls. For example, 100% activity=the plants have died, 0% activity=like control plants. Tables A1 to A15 below show the effects of selected compounds of the general formula (I) according to Tables 1 and 2 on various harmful plants and an application rate corresponding to 320 g/ha and/or 80 g/ha, which were obtained by the experimental procedure mentioned above.

VERPE [10] = experiment: as above; assay type: in vivo, Veronica persica; conditions: dosage 320 g/ha, visual rating about 3 weeks after treatment
Description: as §4

STEME [11] = experiment: Herbicidal post-emergence action 1b (twin sowing, 1280 g/ha); assay type: in vivo, Stellaria media; conditions: dosage 1280 g/ha, visual rating about 3 weeks after treatment
Description: as §2

PHBPU = experiment: Herbicidal post-emergence action 1a (greenhouse pots, visual rating); assay type: in vivo, Pharbitis purpurea; conditions: dosage 320 g/ha, visual rating about 3 weeks after treatment
Description: as §4

VIOTR [12] = experiment: as above; assay type: in vivo, Viola tricolor; conditions: visual rating about 3 weeks after treatment
Description: as §4

AVEFA = experiment: as above; assay type: in vivo, Avena fatua; conditions: Dosage 320 g/ha; rated visually about 3 weeks after treatment; 100% = plants have died, 0% = like control plants
Description: as §4

VERPE [13] = experiment: Herbicidal pre-emergence action 2a (greenhouse pots, visual scoring); assay type: in vivo, Veronica persica; conditions: dosage 320 g/ha, visual scoring after about 3 weeks vs untreated controls
Summary of the method: (§5)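 Visual percent rating, ~3 weeks after treatment, untreated pots as reference (0% = control-like, 100% = killed). Application: formulated compound on soil surface over seeds, 320 g/ha and/or 80 g/ha.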

DIGSA = experiment: as above; assay type: in vivo, Digitaria sanguinalis; conditions: dosage 320 g/ha, visual scoring after about 3 weeks
Description: as §1

ALOMY [14] = experiment: as above; assay type: in vivo, Alopecurus myosuroides; conditions: dosage 320 g/ha, visual scoring after about 3 weeks
Summary of the method: as §5

SETVI = experiment: as above; assay type: in vivo, Setaria viridis; conditions: dosage 320 g/ha, visual scoring after about 3 weeks vs untreated controls
Description: as §1

VIOTR [15] = experiment: as above; assay type: in vivo, Viola tricolor; conditions: dosage 320 g/ha, visual scoring after about 3 weeks vs untreated controls
Description: as §1

ALOMY [16] = experiment: Herbicidal post-emergence action 1a (greenhouse pots, visual rating); assay type: in vivo, Alopecurus myosuroides; conditions: Dosage 320 g/ha; rated visually about 3 weeks after treatment; 100% = plants have died, 0% = like control plants
Summary of the method: (§6)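 Visual scoring versus untreated plants (100% = plants dead, 0% = as control) followed roughly 3 weeks in the greenhouse after treatment. Plants grown in sandy loam pots had been sprayed on green parts at the one-leaf stage, 2–3 weeks post-sowing, with aqueous WP/EC preparations containing 0.5% additive, 600 l/ha, at 320 and/or 80 g/ha.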

LOLRI [17] = experiment: Herbicidal pre-emergence action 2a (greenhouse pots, visual scoring); assay type: in vivo, Lolium rigidum; conditions: dosage 320 g/ha, visual scoring after about 3 weeks vs untreated controls
Summary of the method: as §5

AMARE [18] = experiment: Herbicidal post-emergence action 1a (greenhouse pots, visual rating); assay type: in vivo, Amaranthus retroflexus; conditions: visual rating about 3 weeks after treatment
Summary of the method: as §6

MATIN [19] = experiment: Herbicidal pre-emergence action 2a (greenhouse pots, visual scoring); assay type: in vivo, Matricaria inodora; conditions: dosage 320 g/ha, visual scoring after about 3 weeks vs untreated controls
Description: as §1

AMARE [20] = experiment: as above; assay type: in vivo, Amaranthus retroflexus; conditions: dosage 320 g/ha, visual scoring after about 3 weeks vs untreated controls
Summary of the method: as §5

POAAN [21] = experiment: Herbicidal post-emergence action 1b (twin sowing, 1280 g/ha); assay type: in vivo, Poa annua; conditions: dosage 1280 g/ha, visual rating about 3 weeks after treatment
Description: as §2

C[C@@H](Oc1nn(-c2cnccn2)c(-c2cncc(F)c2)c1Cl)C(=O)O [Example 1-97]
Pre-emergence action against ECHCG in % (ECHCG [1]): 100%

COC(=O)COc1nn(-c2cnccn2)c(-c2ccnc(F)c2)c1Cl [Example I-06]
Post-emergence action at 1280 g/ha against ECHCG in % (ECHCG [2]): 100%
Pre-emergence action at 1280 g/ha against STEME in % (STEME [3]): 100%
Pre-emergence action at 1280 g/ha against MATIN in % (MATIN [4]): 90%
Post-emergence action at 1280 g/ha against MATIN in % (MATIN [5]): 90%
Pre-emergence action at 1280 g/ha against AMARE in % (AMARE [6]): 90%
Pre-emergence action at 1280 g/ha against POAAN in % (POAAN [7]): 100%
Pre-emergence action at 1280 g/ha against ECHCG in % (ECHCG [8]): 100%

COC(=O)[C@H](C)Oc1nn(-c2cnccn2)c(-c2cccc(F)c2)c1Br [Example I-21]
Post-emergence action against LOLRI in % (LOLRI [9]): 90%
Post-emergence action against VERPE in % (VERPE [10]): 80%
Post-emergence action at 1280 g/ha against STEME in % (STEME [11]): 100%
Post-emergence action against PHBPU in % (PHBPU): 80%
Post-emergence action against VIOTR in % (VIOTR [12]; dosage 80 g/ha): 80%
Post-emergence action against VIOTR in % (VIOTR [12]; dosage 320 g/ha): 90%
Post-emergence action against AVEFA in % (AVEFA): 80%
Pre-emergence action against VERPE in % (VERPE [13]): 90%
Pre-emergence action against DIGSA in % (DIGSA): 90%
Pre-emergence action against ALOMY in % (ALOMY [14]): 80%
Pre-emergence action against SETVI in % (SETVI): 90%
Pre-emergence action against VIOTR in % (VIOTR [15]): 100%
Post-emergence action against ALOMY in % (ALOMY [16]): 90%
Pre-emergence action at 1280 g/ha against STEME in % (STEME [3]): 100%
Pre-emergence action at 1280 g/ha against MATIN in % (MATIN [4]): 100%
Post-emergence action at 1280 g/ha against MATIN in % (MATIN [5]): 90%
Pre-emergence action against LOLRI in % (LOLRI [17]): 90%
Pre-emergence action at 1280 g/ha against AMARE in % (AMARE [6]): 100%
Pre-emergence action at 1280 g/ha against POAAN in % (POAAN [7]): 100%
Post-emergence action against AMARE in % (AMARE [18]; dosage 80 g/ha): 80%
Post-emergence action against AMARE in % (AMARE [18]; dosage 320 g/ha): 90%
Pre-emergence action against MATIN in % (MATIN [19]): 80%
Pre-emergence action at 1280 g/ha against ECHCG in % (ECHCG [8]): 100%
Pre-emergence action against AMARE in % (AMARE [20]): 100%
Post-emergence action at 1280 g/ha against POAAN in % (POAAN [21]): 100%
